From ChEMBL document CHEMBL1134426, “Derivatives of 17-(2-methylallyl)-substituted noroxymorphone: variation of the delta address and its effects on affinity and selectivity for the delta opioid receptor” (Bioorg Med Chem Lett, 2001) come the findings set out here.

The target in experiment [1] is Delta-type opioid receptor (Homo sapiens, UniProt P41143). The experiment can be described thus: Displacement of [3H]DADLE from Opioid receptor delta 1. In general terms: Loss of bound radioactivity is the signal in a displacement assay; it reports binding, not function.
The target of experiment [2] is Kappa-type opioid receptor (Homo sapiens, UniProt P41145). The experiment can be described thus: Displacement of [3H]U-69593 from Opioid receptor kappa 1.
In experiment [3] the target is Opioid receptors; delta & kappa (Homo sapiens) (UniProt P41145+P41143). As to the kind of experiment: Selectivity ratio for kappa and delta opioid receptor binding. It counts as protein assay.
In experiment [4] the target is Mu-type opioid receptor (Homo sapiens, UniProt P35372). As to the kind of experiment: Displacement of [3H]DAMGO from Opioid receptor mu 1.
In experiment [5] the target is Opioid receptors; mu & delta (Homo sapiens) (UniProt P41143+P35372). As to the kind of experiment: Selectivity ratio for mu and delta opioid receptor binding. It counts as protein assay.

Some results are limits rather than exact numbers.

What is called Ki is a measure of affinity in units of concentration, obtained from inhibition or displacement. Low readings indicate a stronger hold on the target, high ones a looser hold on the target.

Opioid receptors; delta & kappa (Homo sapiens), sequence (P41143 whole entry, looked up): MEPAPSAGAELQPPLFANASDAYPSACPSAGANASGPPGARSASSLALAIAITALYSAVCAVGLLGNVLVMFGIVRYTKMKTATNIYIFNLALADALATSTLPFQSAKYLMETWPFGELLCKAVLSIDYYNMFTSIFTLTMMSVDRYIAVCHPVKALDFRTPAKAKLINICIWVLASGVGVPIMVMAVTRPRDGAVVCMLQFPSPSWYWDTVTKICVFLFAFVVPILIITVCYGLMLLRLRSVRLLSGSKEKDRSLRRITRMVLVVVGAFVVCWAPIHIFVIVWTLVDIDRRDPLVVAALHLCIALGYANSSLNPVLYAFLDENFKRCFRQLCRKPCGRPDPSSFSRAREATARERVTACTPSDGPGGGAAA
Opioid receptors; delta & kappa (Homo sapiens), sequence (P41145 whole entry, looked up): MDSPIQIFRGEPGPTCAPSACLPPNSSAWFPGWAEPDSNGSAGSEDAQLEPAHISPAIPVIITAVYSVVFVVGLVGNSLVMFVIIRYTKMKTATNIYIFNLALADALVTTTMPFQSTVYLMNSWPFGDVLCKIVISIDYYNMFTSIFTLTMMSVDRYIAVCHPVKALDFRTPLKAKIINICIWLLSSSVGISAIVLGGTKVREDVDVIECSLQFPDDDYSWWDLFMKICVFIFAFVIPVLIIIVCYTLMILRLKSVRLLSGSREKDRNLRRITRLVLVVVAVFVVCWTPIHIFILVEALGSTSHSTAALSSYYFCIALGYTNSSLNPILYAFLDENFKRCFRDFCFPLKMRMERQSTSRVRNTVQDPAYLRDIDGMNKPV
Delta-type opioid receptor, sequence (P41143 whole entry): as the sequence (P41143 whole entry, looked up) above
Opioid receptors; mu & delta (Homo sapiens), sequence (P35372 whole entry, looked up): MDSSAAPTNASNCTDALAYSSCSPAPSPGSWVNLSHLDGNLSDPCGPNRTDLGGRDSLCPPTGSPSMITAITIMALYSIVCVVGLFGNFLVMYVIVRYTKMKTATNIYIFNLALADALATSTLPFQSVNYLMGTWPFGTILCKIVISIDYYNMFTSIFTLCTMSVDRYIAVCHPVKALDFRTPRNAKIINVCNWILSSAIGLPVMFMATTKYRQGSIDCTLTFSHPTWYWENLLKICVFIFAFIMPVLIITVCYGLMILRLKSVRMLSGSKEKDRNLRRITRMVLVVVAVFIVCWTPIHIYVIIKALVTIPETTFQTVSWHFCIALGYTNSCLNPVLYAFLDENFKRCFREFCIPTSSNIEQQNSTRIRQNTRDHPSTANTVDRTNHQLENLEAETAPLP
Opioid receptors; mu & delta (Homo sapiens), sequence (P41143 whole entry, looked up): as the sequence (P41143 whole entry, looked up) above
Mu-type opioid receptor, sequence (P35372 whole entry): as the sequence (P35372 whole entry, looked up) above
Kappa-type opioid receptor, sequence (P41145 whole entry): as the sequence (P41145 whole entry, looked up) above

`C=C(C)CN1CCC23c4c5ccc(OC)c4O[C@H]2c2[nH]c4ccccc4c2C[C@@]3(O)C1C5` (stereo partly drawn): the Ki in experiment [1] was 500 nM; in experiment [2], greater than 14000 nM; in experiment [4], greater than 6000 nM. For the same compound, the Selectivity ratio in experiment [3] was greater than 28; in experiment [5], greater than 12.

Take `C=C(C)CN1CCC23c4c5ccc(OC)c4O[C@H]2c2ncc(-c4ccc(Cl)cc4)cc2C[C@@]3(O)C1C5` (stereo partly drawn): the results for the Ki in experiment [1], in experiment [2] and in experiment [4] were 260 nM, 3200 nM and greater than 6000 nM, respectively. In addition, the Selectivity ratio in experiment [3] is 12; in experiment [5], 23.

On to `C=C(C)CN1CCC23c4c5ccc(OC)c4O[C@H]2c2oc4ccccc4c2C[C@@]3(O)C1C5` (stereo partly drawn), for which the Ki was 44 nM in experiment [1], greater than 10000 nM in experiment [2] and greater than 6000 nM in experiment [4]. In addition, the Selectivity ratio worked out at 230 in experiment [3] and 140 in experiment [5].

With `C=C(C)CN1CCC23c4c5ccc(OC)c4O[C@H]2c2n[nH]cc2C[C@@]3(O)C1C5` (stereo partly drawn), the Selectivity ratio in experiment [3] was 1; in experiment [5] it was greater than 2.

As to `C=C(C)CN1CCC23c4c5ccc(O)c4O[C@H]2c2[nH]ncc2C[C@@]3(O)C1C5` (stereo partly drawn), the Ki in experiment [1] worked out at 40 nM; in experiment [2] it was 38 nM; in experiment [4], 140 nM.

`C=C(C)CN1CCC23c4c5ccc(O)c4O[C@H]2c2ncc(-c4ccc(Cl)cc4)cc2C[C@@]3(O)C1C5` (stereo partly drawn): the Ki in experiment [1] is 16 nM; in experiment [2], 300 nM; in experiment [4], greater than 6000 nM. The Selectivity ratio in experiment [3] is 19; in experiment [5], greater than 380.

Take `C=C(C)CN1CCC23c4c5ccc(O)c4O[C@H]2c2oc4ccccc4c2C[C@@]3(O)C1C5` (stereo partly drawn): the Ki came to 8.2 nM in experiment [1], 580 nM in experiment [2] and 1300 nM in experiment [4]. In addition, the Selectivity ratio in experiment [3] was found to be 71; in experiment [5] it was 160.

For the compound `C=C(C)CN1CCC23c4c5ccc(OC)c4O[C@H]2C(=O)C2(Cc4ccccc4C2)C[C@@]3(O)C1C5` (stereo partly drawn), the inhibition constant Ki in experiment [1] is greater than 7200 nM; in experiment [2], greater than 7000 nM; in experiment [4] it was greater than 6000 nM.

For the compound `C=C(C)CN1CCC23c4c5ccc(O)c4O[C@H]2c2n[nH]cc2C[C@@]3(O)C1C5` (stereo partly drawn), the values for the Selectivity ratio in experiment [3] and in experiment [5] were 1 and 4, respectively.

On to `C=C(C)CN1CCC23c4c5ccc(O)c4O[C@H]2c2[nH]c4ccccc4c2C[C@@]3(O)C1C5` (stereo partly drawn), for which the Ki in experiment [1] was 4.7 nM; in experiment [2], 3800 nM; in experiment [4], 7900 nM. Moreover, the Selectivity ratio in experiment [3] stood at 810; in experiment [5] it was 1700.

Consider `C=C(C)CN1CCC23c4c5ccc(O)c4O[C@H]2C(=O)/C(=C/c2ccccc2)C[C@@]3(O)C1C5` (stereo partly drawn), for which the values for the Ki in experiment [1], in experiment [2] and in experiment [4] were 210 nM, 4500 nM and 4500 nM, respectively. In addition, the Selectivity ratio in experiment [3] and in experiment [5] was 21 in each case.

With `C=C(C)CN1CCC23c4c5ccc(OC)c4O[C@H]2C(=O)/C(=C/c2ccccc2)C[C@@]3(O)C1C5` (stereo partly drawn), the Ki is 3400 nM in experiment [1], greater than 7000 nM in experiment [2] and greater than 6000 nM in experiment [4]. In addition, the Selectivity ratio is greater than 2 in experiment [3] and greater than 1 in experiment [5].

Take `C=C(C)CN1CCC23c4c5ccc(O)c4O[C@H]2C(=O)C2(Cc4ccccc4C2)C[C@@]3(O)C1C5` (stereo partly drawn): the Ki came to 41 nM in experiment [1], 1000 nM in experiment [2] and 2000 nM in experiment [4]. For the same compound, the Selectivity ratio in experiment [3] came out at 24; in experiment [5], 49.

As for `C=C(C)CN1CCC23c4c5ccc(OC)c4O[C@H]2c2[nH]ncc2C[C@@]3(O)C1C5` (stereo partly drawn), the Ki was 2400 nM in experiment [1], 3100 nM in experiment [2] and greater than 6000 nM in experiment [4].
